Patent publication US5545755A, “Therapeutically useful 2-aminotetralin derivatives” (priority 1995, dated 1996)
Structures can show the parent of a compound that is named as a salt. Where two headings read alike, the source gives them in different places.

Assays:
[1] = Blood pressure in chloralose anesthetized cats (BP SND/MAX); assay type: in vivo; details: i.v., blood pressure in percent control at the dose causing 50% depression in SND
Method: BP SND/MAX: The blood pressure of the chloralose anesthetized cats in percent control at the dose causing 50% depression in SND and the maximum reduction in blood pressure as percent of the control blood pressure in the same animals observed in the dose range tested (0.001-1.0 mg/kg i.v.).

[2] = Hypothermia in mice after subcutaneous injection; assay type: in vivo; details: Mus musculus, sc, dose depressing temperature by 2° C. in two of four mice
Method: Hypothermia: Starting with a dose of 30 mg/kg, four mice are injected subcutaneously with test compound. Twenty minutes later, the number of animals whose body temperature has decreased by 2° C. or more are counted. […] The time for last statistically significant drug affect on mean body temperature is indicated in minutes. […] Potency is given as mg/kg ED50 (dose required to depress temperature in two of four mice) as measured by Spearman-Karber statistics.

[3] = tested on: sympathetic nerve discharge; assay: Sympathetic Nerve Discharge (SND) in chloralose anesthetized cats; assay type: in vivo; details: Felis catus, iv, dose causing 50% depression in SND
Method: Sympathetic Nerve Discharge (SND): The i.v. mg/kg dose causing a 50% depression in SND in chloralose anesthetized cats and the maximum inhibition of sympathetic activity observed in the dose range tested (0.001-1.0 mg/kg i.v.).

[4] = target: T1, 5-hydroxytryptamine (5-HT1A) receptor (Bos taurus, UniProt F6Q2H9); assay: Inhibition of 8-OH-DPAT binding in a bovine brain homogenate (5-HT1A binding)
T1 construct: bovine brain homogenate; from tissue; host or cells: bovine brain homogenate
T1 sequence (F6Q2H9 1-422): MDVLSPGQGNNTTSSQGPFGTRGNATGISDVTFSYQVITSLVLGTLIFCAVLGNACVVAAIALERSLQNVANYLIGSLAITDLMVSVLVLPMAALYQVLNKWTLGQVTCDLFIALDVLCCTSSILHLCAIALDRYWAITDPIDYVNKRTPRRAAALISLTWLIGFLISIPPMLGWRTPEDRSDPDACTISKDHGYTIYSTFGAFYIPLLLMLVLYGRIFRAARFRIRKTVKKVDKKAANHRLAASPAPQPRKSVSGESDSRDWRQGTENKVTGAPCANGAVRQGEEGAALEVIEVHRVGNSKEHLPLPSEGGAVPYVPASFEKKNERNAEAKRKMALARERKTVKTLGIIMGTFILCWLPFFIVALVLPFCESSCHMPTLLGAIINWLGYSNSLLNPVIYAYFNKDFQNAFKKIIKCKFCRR
Description: Binding: Inhibition of 8-OH-DPAT binding in a bovine brain homogenate. Potency is given as nM dose required to inhibit 50% of DPAT binding (IC50). This test measures ability to bind to 5-hydroxytryptamine (5-HT1A) receptor.

dopamine receptors = details: cited from earlier work
[5] = Chem. Ab., 79:146294b; cited from earlier work
[6] = J. Pharm. Sci., 67, 880-82 (1978); cited from earlier work
D2 receptor = D2 receptor (Homo sapiens, UniProt P14416); assay: Dopamine D2 receptor in vitro binding
Description: The compounds of this invention where R1 is in the 8 position in the aromatic ring are very selective 5-HT1A receptor agonists having little or no dopaminergic activity. […] Both these features are beneficial to effective clinical treatment.

[7] = some patients; cited from earlier work

Sequence of D2 receptor (P14416 whole entry): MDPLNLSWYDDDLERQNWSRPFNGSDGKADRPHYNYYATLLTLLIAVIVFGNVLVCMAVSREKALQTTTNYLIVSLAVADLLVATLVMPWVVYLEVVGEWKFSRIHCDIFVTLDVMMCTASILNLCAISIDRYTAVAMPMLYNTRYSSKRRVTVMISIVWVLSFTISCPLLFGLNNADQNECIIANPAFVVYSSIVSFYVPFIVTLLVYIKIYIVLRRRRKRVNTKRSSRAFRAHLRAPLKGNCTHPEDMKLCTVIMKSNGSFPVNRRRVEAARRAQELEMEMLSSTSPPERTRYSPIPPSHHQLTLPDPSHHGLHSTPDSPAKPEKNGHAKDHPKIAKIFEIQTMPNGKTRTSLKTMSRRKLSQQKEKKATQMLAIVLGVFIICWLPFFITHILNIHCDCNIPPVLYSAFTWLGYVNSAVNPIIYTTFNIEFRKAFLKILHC

Question: Which “% BD (at SND ED50)” value [1] does the source give for `CCCN(CC1CC1)C1CCc2cccc(C(N)=O)c2C1` (stereo not shown) [Example 5 Compound 2, 1,2,3,4-Tetrahydro-2-N-cyclopropylmethyl-2-N-propyl-8-yl-carboxamide] here?
Answer: 40.0%

Question: And the ED50 [2]?
Answer: 0.31 mg/kg

Question: What about the ED50 [3] of the same molecule?
Answer: 0.33 mg/kg

Question: What about the IC50 ([4]; read-out: 5-HT1A Binding IC50) of the same molecule?
Answer: 13 nM

Question: What does the source list for `C=CCN(C)C1CCc2cccc(OC)c2C1.Cl` (stereo not shown) [Example 15 Compound 12, 1,2,3,4-Tetrahydro-8-methoxy-N-methyl-N-2-propenyl-2-Naphthalenamine hydrochloride]?
Answer: % BD (at SND ED50) [1]: 79.0%; ED50 [2]: 1.2 mg/kg; ED50 [3]: 0.012 mg/kg; IC50 [4]: 7.9 nM

Question: Which “% BD (at SND ED50)” value [1] does the source give for `C=CCNC1CCc2cccc(O)c2C1.Cl` (stereo not shown) [Example 19 Compound 2, 5,6,7,8-tetrahydro-7-(2-propenyl)amino-1-naphthalenol hydrochloride] here?
Answer: 78.0%

Question: And the ED50 [2]?
Answer: 0.73 mg/kg

Question: What about the ED50 [3] of the same molecule?
Answer: 0.01 mg/kg

Question: What about the IC50 [4] of the same molecule?
Answer: 3.5 nM

Question: With `NC(=O)c1cccc2c1CC(N1CCCC1)CC2` (single isomer, unassigned; (+)) [Compound 60-1, (+)-1,2,3,4-tetrahydro-2-pyrrolidino-naphthalene-8-yl-carboxamide] as the molecule, how does the IC50 ([4]; read-out: 5-HT1A Binding IC50) read?
Answer: 10.9 nM

Question: With `O=C1CC2(CCCC2)CC(=O)N1CCCCN1CCN(c2ncccn2)CC1` [Buspirone] as the molecule, how does the dopamine receptor antagonism (dopamine receptors) read?
Answer: antagonizes dopamine receptors at the same dose it stimulates 5-HT1A receptors

Question: Which “analgesic and intestinal movement accelerating actions” value [5] does the source give for `CN(C)C1CCc2ccc(O)cc2C1(C)C` (stereo not shown) [1,1-Dimethyl-2-(N,N-dimethylamino)-7-hydroxytetralin] here?
Answer: analgesic and intestinal movement accelerating actions

Question: Which results are given for `C=CCN[C@@H]1CCc2cccc(OC)c2[C@@H]1CC=C` (relative stereo) [Example 26 Compound 1, Cis-(+-)-1,2,3,4-Tetrahydro-8-methoxy-N,1-di-(2-pro-penyl)-2-naphthalenamine hydrochloride]?
Answer: % BD (at SND ED50) [1]: 70.0%; ED50 [2]: 2.31 mg/kg; ED50 [3]: 0.16 mg/kg

Question: With `COc1cccc2c1CCC(NC1CC1)C2C` (stereo not shown) [1-methyl-2-(cyclopropylamino)-5-methoxytetralin] as the molecule, how does the local anesthetic activity [6] read?
Answer: possess local anesthetic activity

Question: For `Brc1cccc2c1CC(N1CCCC1)CC2` (single isomer, unassigned; (+)) [Compound 59-1, (+)-1,2,3,4-tetrahydro-2-pyrrolidino-8-bromo-tetralin], which IC50 ([4]; read-out: 5-HT1A Binding IC50) is on record?
Answer: 4 nM

Question: Which IC50 (D2 receptor) does the source give for `NC(=O)c1cccc2c1CC(N1CCCCCC1)CC2` (stereo not shown) [Compound 58-1, (1-Hexahydroazepinyl)-5,6,7,8-tetrahydronaphthalene-1-carboxamide] here?
Answer: > 1000 nM

Question: What about the ED50 [2] of the same molecule?
Answer: 2.3 mg/kg

Question: What about the IC50 ([4]; read-out: 5-HT1A Binding IC50) of the same molecule?
Answer: 26 nM

Question: With `c1ccc2c(c1)CCC(N1CCCCCC1)C2` (stereo not shown) [Compound 57-3, Hexahydro-1-(1,2,3,4-tetrahydro-2-naphthalenyl)-1H-Azepine] as the molecule, how does the “% BD (at SND ED50)” value [1] read?
Answer: 75.0%

Question: What about the ED50 [2] of the same molecule?
Answer: 2.3 mg/kg

Question: What about the ED50 [3] of the same molecule?
Answer: 0.62 mg/kg

Question: What about the IC50 ([4]; read-out: 5-HT1A Binding IC50) of the same molecule?
Answer: 103 nM

Question: With `CC1(C)CC(=O)N(CCCCN2CCN(c3ncccn3)CC2)C(=O)C1` [Gepirone] as the molecule, how does the “effect on depressive endpoints” value [7] read?
Answer: ameliorative effects on some depressive endpoints in some patients

Question: What about the dopamine receptor antagonism (dopamine receptors) of the same molecule?
Answer: has dopamine antagonist properties

Question: What does the source list for `C=CCNC1CCc2cccc(OC)c2C1.Cl` (stereo not shown) [Example 15 Compound 27, 1,2,3,4-Tetrahydro-8-methoxy-N-2-propenyl-2-naphthalenamine hydrochloride]?
Answer: % BD (at SND ED50) [1]: 62.0%; ED50 [2]: 0.31 mg/kg; ED50 [3]: 0.1 mg/kg; IC50 [4]: 8.9 nM

Question: What does the source list for `C=CCN(CC=C)C1CCc2ccccc2C1.Cl` (racemic) [Example 21 Compound 6, (+-)-1,2,3,4-Tetrahydro-N,N-di-2-propenyl-2-naphthalenamine hydrochloride]?
Answer: % BD (at SND ED50) [1]: 52.0%; ED50 [2]: 0.97 mg/kg; ED50 [3]: 0.6 mg/kg; IC50 [4]: 50.7 nM
